The values below come from paper PMC10452460, “In Silico, In Vitro, and In Vivo Investigations on Adapalene as Repurposed Third Generation Retinoid against Multiple Myeloma and Leukemia” (Cancers, 2023).

In this assay the target is T1, c-MYC (Homo sapiens, UniProt P01106).
T1 construct: recombinant human c-MYC protein (ab169901, Abcam)
In words: microscale thermophoresis with Blue-NHS labelled c-MYC ([…]). Type of assay: binding. For orientation: In MST a laser heats a spot of the sample, and binding alters the fluorescence response.

T1 sequence (P01106 16-454): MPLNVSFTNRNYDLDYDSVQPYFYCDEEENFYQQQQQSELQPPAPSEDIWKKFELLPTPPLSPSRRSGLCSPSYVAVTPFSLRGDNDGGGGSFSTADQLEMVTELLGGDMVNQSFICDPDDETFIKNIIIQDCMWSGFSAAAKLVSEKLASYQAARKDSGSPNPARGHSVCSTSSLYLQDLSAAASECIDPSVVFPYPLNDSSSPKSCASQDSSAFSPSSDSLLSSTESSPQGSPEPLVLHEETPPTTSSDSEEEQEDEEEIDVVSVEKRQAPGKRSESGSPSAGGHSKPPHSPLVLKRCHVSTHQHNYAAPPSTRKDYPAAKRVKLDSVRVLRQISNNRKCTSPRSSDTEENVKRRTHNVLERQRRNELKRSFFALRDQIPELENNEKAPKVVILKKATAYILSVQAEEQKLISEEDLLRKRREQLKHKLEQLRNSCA

In general, Kd refers to the equilibrium constant for the complex coming apart. A lower Kd goes with a tighter complex. On to `COc1ccc(-c2ccc3cc(C(=O)O)ccc3c2)cc1C12CC3CC(CC(C3)C1)C2` [adapalene], for which the affinity, expressed as Kd, was 3.05 µM.
